Source: patent US20060135608A1, “Eicosapentaenoic acid (epa) for treating anorexia nervosa (an) and bulimia” (priority 2002, published 2006)

What was measured:
[1] = test system: patients with anorexia nervosa; experiment: Example 2: seven patients with anorexia nervosa or related disorders treated with 1 g/day E-EPA; assay type: in vivo, human
Description: Seven patients underwent treatment of their disorders using EPA. FIGS. 1-5 summarise the results of this study. Participants were given 1 g/day ethyl-EPA (E-EPA) for an initial 3 month period. The E-EPA provided by Laxdale Limited was over 95% pure EPA. If the patient and family wished to continue beyond 3 months, the dose was continued, and in some cases increased beyond 1 g/day. All patients were offered the standard treatment available at the local district health services, including full psychiatric and physical assessment, regular monitoring of physical parameters. Parameters monitored on a monthly basis included the patient's weight and height. BMI, and average body weight and height (ABW) were calculated using Weight 4 Height software (based on 1990 British reference data by the Child Growth Foundation). The following standard psychometric measures were used: EDI-2, BDI-2, CGAS, CGI-S, Morgan-Russell, and patient Likert Scales (including problems, general and improvement).

[2] = test system: patient with AN; experiment: Example 1: case of a patient with AN treated with 1 g/d ethyl-EPA; assay type: in vivo, human
Description: A patient presented with a 14-month history of dieting and eating difficulties. These had started with dietary restrictions and excessive exercise and proceeded to laxative abuse. Two months prior to being first seen they had stopped taking all solid food. When first seen their weight was still within the normal range for their height at 55 kg for 1.63 m. However, they had lost 8 kg since stopped solid food, had stopped menstruation and begun to grow the fine, downy “lanugo” hair over their body which is common in AN.
They were treated with a standard AN regime of family therapy, psychotherapy and dietary advice. This was ineffective and over the next two months they lost around 10 kg which necessitated their admission to hospital. At this point they were extremely distressed and unable or unwilling to maintain a conversation. Despite their emaciation they were still preoccupied with being fat and wanted to lose more weight. Their heart rate was very slow and their blood glucose was low, signs of starvation. They were treated as an emergency with compulsory naso-gastric feeding with parental consent. After two weeks of this therapy they had gained a little over 2 kg and begun to eat small amounts by mouth. At the end of this time their family removed them from hospital against medical advice.
Over the following ten days they lost a further 5 kg in weight to 42 kg. Their doctors believed that their life was in danger and so obtained an order for compulsory admission to hospital. At the start of this admission they were treated with 1 g/d of ethyl-eicosapentaenoate (E-EPA). This transformed their response to treatment. […] Their mood and cognitive functions improved and they became normally communicative. Instead of being obsessed by weight and food to the exclusion of everything else, they became interested in all aspects of their life and their future. […] After 12 weeks they were discharged from hospital and their body weight stabilised around a normal 62-65 kg. They took a summer job which they enjoyed and completed successfully and enrolled in a college course.

[3] = Patient 2, 1-year follow-up, dosage increased to 2 g/day in later stages
[4] = Patient 5, after three months, 1 g/day
[5] = Patient 6, end of three months, 1 g/day
[6] = 3 months after discharge, scored 0 to 12

With `CC/C=C\C/C=C\C/C=C\C/C=C\C/C=C\CCCC(=O)OCC` [E-EPA, ethyl-eicosapentaenoate] the ABW [1, 3] was 88.3%, the BMI [1, 3] was 17.74 and the clinical response ([1]; Patient 2, after restart of E-EPA and zinc treatment) was “significant improvement”. The “lowest ABW” value ([1]; Patient 2, after stopping E-EPA at 6 months) was 73%, the clinical response ([1]; Patient 2, by three months, 1 g/day) was “partially improved” and the ABW ([1]; Patient 2, three months, 1 g/day, 84.4% after NG feeding) was 86.34%. The growth in height ([1]; Patient 3, in three months, 1 g/day) was 3 cm, the mental state ([1]; Patient 3, three months, 1 g/day) was “significantly improved” and the BMI ([1]; Patient 3, three months, 1 g/day, 13.3 at referral) was 15.5. The ABW ([1]; Patient 3, three months, 1 g/day, 74.4% at referral) was 81%, the psychometric measures ([1]; Patient 4, 1 g/day) was “marked improvement” and the “weight stabilised, ABW” value ([1]; Patient 4, 1 g/day for a total of 6 months, 83.9% at discharge from paediatric hospital) was “around 85.5%”. For the same compound, the mood ([1]; Patient 4, after two months, 1 g/day) was “dramatic improvement”, the ABW ([1]; Patient 4, within three months after they stopped taking the E-EPA) was 80% and the panic attacks ([1]; Patient 5, E-EPA increased to 4 g/day) was “helped with their panic attacks”. The anxiety [1, 4] was “did not improve”, the “weight, eating habits and mood” value [1, 4] was “dramatic improvement” and the BMI ([1]; Patient 5, after three months, 1 g/day, 17.15 before) was 20. For the same compound, the ABW ([1]; Patient 5, after three months, 1 g/day, 77% before) was 90%, the anorexic symptoms [1, 5] was “complete resolution” and the growth in height [1, 5] was 3 cm. The BMI ([1]; Patient 6, end of three months, 1 g/day, 17.57 at first presentation) was 19.1, the ABW ([1]; Patient 6, end of three months, 1 g/day, 87% at first presentation) was 93.6% and the clinical response ([1]; Patient 6, within the first 4-6 weeks, 1 g/day) was “improved dramatically”. The growth in height ([1]; Patient 7, during three months treatment) was 1.5 cm, the BMI ([1]; Patient 7, end of three months treatment, 1 g/day, 14.8 before) was 16.21 and the ABW ([1]; Patient 7, end of three months treatment, 1 d/day, 78.21 before) was 84.5%. The “clinical response (appetite, mood, self-esteem, psychometric measures)” value ([1]; Patient No 1, after 2 months of treatment) was “remarkable improvement”, the BMI ([1]; Patient No 1, after three months of 1 g E-EPA, 16.9 at hospital admission) was 22.8 and the ABW ([1]; Patient No 1, after three months of 1 g E-EPA, 83.6% at hospital admission) was 111%. For the same compound, the relapse of anorexia ([1]; Patient No 1, one-year follow-up, E-EPA stopped after three months) was “no return of their anorexia”, the “cases with complete recovery” value ([1]; of the seven patients) was “three” and the “cases with partial improvement” value ([1]; of the seven patients) was “four”. For the same compound, the growth response ([1]; patients who had growth delay, during the time of the E-EPA treatment) was “significant growth”, the “deterioration whilst taking the E-EPA” value ([1]; seven patients) was “no patient deteriorated” and the body image perceptions ([2]; 1 g/d, over 12 weeks) was “lost their distorted body image perceptions”. For the same compound, the “mood and cognitive functions” value ([2]; 1 g/d, over 12 weeks) was “improved”, the eating ([2]; 1 g/d, over the following weeks) was “began to eat normally” and the Wt kg ([2]; 2nd hospital discharge on EPA (12 weeks, 1 g/d), 42 at 2nd hospital admission) was 57 kg. The “MR-O (Morgan-Russell overall scale)” value ([2]; 2nd hospital discharge on EPA, scored 0 to 12, 12 completely normal, 1.2 at 2nd admission) was 12.0, the “MR-A (food intake)” value ([2]; 2nd hospital discharge on EPA, scored 0 to 12, 0.0 at 2nd admission) was 12.0 and the “MR-E (overall social-economic-health state)” value ([2]; 2nd hospital discharge on EPA, scored 0 to 12, 1.0 at 2nd admission) was 9.0. For the same compound, the “MR-C (mental state)” value ([2]; 2nd hospital discharge on EPA, scored 0 to 12, 4.0 at 2nd admission) was 8.0, the Wt kg ([2]; 3 months after discharge) was 63 kg and the “MR-A (food intake)” value [2, 6] was 12.0. For the same compound, the “MR-C (mental state)” value [2, 6] was 12.0, the “MR-E (overall social-economic-health state)” value [2, 6] was 11.0 and the “MR-O (Morgan-Russell overall scale)” value [2, 6] was 12.0. The body weight stabilised ([2]; after discharge from hospital at 12 weeks) was 62 to 65 kg and the body weight ([2]; within 12 weeks of 1 g/d, 42 kg at start) was 57 kg.
